Measurements: ChEMBL document CHEMBL1201862, “PubChem BioAssay data set” (2004)
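Compound exposure: 48 hours, 5 concentrations, 96-well plates. Here, GI50 denotes the concentration required for 50% inhibition of growth.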 Calls of active or inactive are those of the source. No stated cut-off is given here; in the data, active = GI50 up to about 1.1 µM and inactive = higher.

What was measured:
Assay in all cases: DTP human tumour cell line panel, 48 h
[1] = tested on: DLD-1
[2] = tested on: UACC-257
[3] = tested on: A498
[4] = tested on: SW-620
[5] = tested on: SR
[6] = tested on: RXF 631
[7] = tested on: SN12C
[8] = tested on: COLO 205
[9] = tested on: LXFL 529
[10] = tested on: Malme-3M
[11] = tested on: U-251
[12] = tested on: CCRF-CEM
[13] = tested on: NCI-H226
[14] = tested on: HOP-62
[15] = tested on: MOLT-4
[16] = tested on: SK-MEL-5
[17] = tested on: KM-20L2
[18] = tested on: SNB-78
[19] = tested on: DMS-114
[20] = tested on: RPMI-8226
[21] = tested on: HCT-15
[22] = tested on: HT-29
[23] = tested on: UO-31
[24] = tested on: SK-MEL-28
[25] = tested on: M14
[26] = tested on: LOX IMVI
[27] = tested on: HOP-92
[28] = tested on: NCI-H23
[29] = tested on: TK-10
[30] = tested on: HCT-116
[31] = tested on: A549
[32] = tested on: SF-295
[33] = tested on: HL-60
[34] = tested on: ACHN
[35] = tested on: 786-0
[36] = tested on: SF-268
[37] = tested on: SNB-19
[38] = tested on: OVCAR-3
[39] = tested on: EKVX
[40] = tested on: NCI-H522
[41] = tested on: M19-MEL
[42] = tested on: KM12
[43] = tested on: NCI-H460
[44] = tested on: SK-OV-3
[45] = tested on: SF-539
[46] = tested on: UACC-62
[47] = tested on: OVCAR-4
[48] = tested on: SNB-75
[49] = tested on: XF498
[50] = tested on: OVCAR-5
[51] = tested on: IGROV-1
[52] = tested on: HCC 2998
[53] = tested on: CAKI-1
[54] = tested on: RXF 393
[55] = tested on: K562

## O=C1NC(=O)C2C1N(Cc1ccccc1)C(=O)N2Cc1ccccc1 (stereo not given)
[1]
  GI50: > 100 µM (inactive)
[2]
  GI50: > 100 µM (inactive)
[3]
  GI50: > 100 µM (inactive)
[4]
  GI50: > 100 µM (inactive)
[5]
  GI50: > 100 µM (inactive)
[6]
  GI50: > 100 µM (inactive)
[7]
  GI50: > 100 µM (inactive)
[8]
  GI50: > 100 µM (inactive)
[9]
  GI50: > 100 µM (inactive)
[10]
  GI50: > 100 µM (inactive)
[11]
  GI50: > 100 µM (inactive)
[12]
  GI50: > 100 µM (inactive)
[13]
  GI50: > 100 µM (inactive)
[14]
  GI50: > 100 µM (inactive)
[15]
  GI50: > 100 µM (inactive)
[16]
  GI50: > 100 µM (inactive)
[17]
  GI50: > 100 µM (inactive)
[18]
  GI50: > 100 µM (inactive)
[19]
  GI50: > 100 µM (inactive)
[20]
  GI50: > 100 µM (inactive)
[21]
  GI50: > 100 µM
[22]
  GI50: > 100 µM (inactive)
[23]
  GI50: > 100 µM (inactive)
[24]
  GI50: > 100 µM (inactive)
[25]
  GI50: > 100 µM (inactive)
[26]
  GI50: > 100 µM (inactive)
[27]
  GI50: > 100 µM (inactive)
[28]
  GI50: > 100 µM (inactive)
[29]
  GI50: > 100 µM (inactive)
[30]
  GI50: > 100 µM (inactive)
[31]
  GI50: > 100 µM (inactive)
[32]
  GI50: > 100 µM (inactive)
[33]
  GI50: > 100 µM (inactive)
[34]
  GI50: > 100 µM (inactive)
[35]
  GI50: > 100 µM (inactive)
[36]
  GI50: > 100 µM (inactive)
[37]
  GI50: > 100 µM (inactive)
[38]
  GI50: > 100 µM (inactive)
[39]
  GI50: > 100 µM (inactive)
[40]
  GI50: > 100 µM (inactive)
[41]
  GI50: > 100 µM (inactive)
[42]
  GI50: > 100 µM (inactive)
[43]
  GI50: > 100 µM (inactive)
[44]
  GI50: > 100 µM (inactive)
[45]
  GI50: > 100 µM (inactive)
[46]
  GI50: > 100 µM (inactive)
[47]
  GI50: > 100 µM (inactive)
[48]
  GI50: > 100 µM (inactive)
[49]
  GI50: > 100 µM (inactive)
[50]
  GI50: > 100 µM (inactive)
[51]
  GI50: > 100 µM (inactive)
[52]
  GI50: > 100 µM (inactive)
[53]
  GI50: > 100 µM (inactive)
[54]
  GI50: > 100 µM (inactive)
[55]
  GI50: > 100 µM (inactive)
